The values that follow come from patent US20120121707A1, “Tolbutamide Particle And Preparing Method Thereof And Method Of Reducing A Blood Glucose” (National Taiwan University, priority 2010, published 2012).

Data set [1] is described as follows: Particle size distribution analysis of tolbutamide particles. The class given is physicochemical. An excerpt:
In the embodiments 1 to 4, the usage amount of the bulk drug of tolbutamide is in a range of 2 to 5 gram, and the other operation conditions, e.g. the pressures and the temperature of mixing, the temperatures before and after the expansion and the particle sizes of the tolbutamide micro-particles, are listed in Table 1 below.
In the embodiments 5 to 8, the usage amount of the bulk drug of tolbutamide is in a range of 2 to 5 gram, and the other operation conditions, e.g. the pressures and the temperature of mixing, the temperatures before and after the expansion and the particle sizes of the tolbutamide micro-particles, are listed in Table 2 below.
FIG. 1A is the schematic diagram showing the distribution and the cumulative distribution of the particle sizes for the bulk drug of tolbutamide, wherein the average particle size is 89.4 micron. FIG. 1B is the schematic diagram showing the distribution and the cumulative distribution of the particle sizes for the tolbutamide micro-particles obtained by using the method of the rapid expansion of supercritical solution (RESS) in the fourth embodiment. FIG. 1C is the schematic diagram showing the distribution and the cumulative distribution of the particle sizes for the tolbutamide micro-particles obtained by using the method of RESS with solid cosolvent (RESS-SC) in the eighth embodiment. […]

For data set [2] the following is noted: cited from earlier work.

SMILES strings stand for the structures.

As to `CCCCNC(=O)NS(=O)(=O)c1ccc(C)cc1` [Bulk drug of tolbutamide, tolbutamide], the average particle size in data set [1] (Table 1, RESS method, supercritical CO2, no cosolvent, bulk drug as comparison) was determined as 89.4 μm; in data set [1] (text on FIGS. 1A-1D) it was 89.4 micron.
For the compound `CCCCNC(=O)NS(=O)(=O)c1ccc(C)cc1` [tolbutamide], the “solubility in ethanol and chloroform” value in data set [2] (ethanol and chloroform) is “soluble in ethanol and chloroform”. Moreover, the solubility in water result in data set [2] (water) is listed as “almost insoluble in the water”.
